Holding throughout (type): functional
For assay [1], the species on record is Rattus norvegicus. As to the kind of experiment: In vitro inhibitory activity against [3H]5-HT uptake into crude synaptosomes from whole rat brain.
Assay [2] relates to Mus musculus. The assay is described as follows: Prevention of reserpine-induced ptosis in the mouse after peroral administration.
Assay [3] has as its system Mus musculus. As to the kind of experiment: Effect on tetrabenazine-induced suppression of locomotor activity in the mouse after peroral administration.
The species named for assay [4] is Rattus norvegicus. The assay is described as follows: In vitro inhibitory activity against [3H]-5-HT uptake into crude synaptosomes from whole rat brain.

Structures are written as SMILES.

Broadly, the IC50 is the concentration that gives 50% inhibition. A lower IC50 goes with inhibition by little substance.

Turning to `CN(C)CCCN1c2ccccc2CCc2ccccc21` [IMIPRAMINE], the IC50 amounted to 240 nM in the assay filed under Rattus norvegicus [1] and 3100 nM in the assay listed under Rattus norvegicus [4]. The MED with Mus musculus [2] and in the assay on Mus musculus [3] was 4 (mg of base) kg-1 throughout.

These data come from ChEMBL document CHEMBL1122948, “3,4-Diphenyl-1H-pyrazole-1-propanamine antidepressants” (J Med Chem, 1985).
